Among the test systems are HS 578T breast; SF-295 CNS; NCI/ADR-RES ovarian; COLO 205 colon; K-562 leukemia; MDA-MB-435; SK-MEL-28 melanoma; MCF7 breast; SW-620 colon; CCRF-CEM leukemia.
Holding throughout (assay): growth of human tumour cells (NCI), 48 h

Several values for one entry are separate records, joined by “and”; a condition that tells them apart may be missing. Equal values may be shown once.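 Growth conditions: 96-well plates. Treatment: test compound, 48 hours, 5 concentrations. Analysis: linear interpolation between bracketing concentrations; unreached endpoints set to highest concentration. At the GI50, growth is halved. TGI: total growth inhibition.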

Take `COc1ccc(-c2cn(-c3cccc(C(=O)/C=C/c4ccc(O)c(OC)c4)c3)c(=O)[nH]2)cc1`: the GI50 in the assay on HS 578T breast is 3.24 µM; with SF-295 CNS it was 11.2 µM; in the assay with NCI/ADR-RES ovarian, 2.97 µM; in the assay with COLO 205 colon, 4.79 µM; in the assay with K-562 leukemia, 4.71 µM; with MDA-MB-435 it was 3.19 µM. The GI50 with SK-MEL-28 melanoma was 1.99 µM; in the assay on MCF7 breast, 2.66 µM; in the assay with SW-620 colon it was 2.42 µM; in the assay on CCRF-CEM leukemia, 1.19 µM. Also, the TGI with HS 578T breast was over 27.2 µM; in the assay on SF-295 CNS it was over 85.4 µM; in the assay with NCI/ADR-RES ovarian it was over 31.4 µM; in the assay with COLO 205 colon, 15.3 µM; in the assay with K-562 leukemia, over 37.7 µM; in the assay with MDA-MB-435 it was over 62.2 µM. The TGI in the assay with SK-MEL-28 melanoma is 4.51 µM; in the assay on MCF7 breast, 22 µM; in the assay on SW-620 colon, 6.22 µM; in the assay with CCRF-CEM leukemia, 5.81 µM.
With `c1ccc(Nn2c(CCCCCCCCc3nnc(COc4ccccc4)n3Nc3ccccc3)nnc2COc2ccccc2)cc1`, the GI50 in the assay with HS 578T breast is 35.5 µM; in the assay with SF-295 CNS, 1.24 µM and 7.51 µM; in the assay with NCI/ADR-RES ovarian, 11.5 µM and 20.6 µM; in the assay on COLO 205 colon, 3.18 µM and 19.6 µM; with K-562 leukemia it was 3.71 µM and 2.17 µM; with MDA-MB-435, 5.34 µM and 11.9 µM. Further, the GI50 is 22.9 µM and 57.1 µM with SK-MEL-28 melanoma; 18.3 µM in the assay with MCF7 breast; 9.55 µM and 11.8 µM with SW-620 colon; 2.91 µM in the assay with CCRF-CEM leukemia. Besides, the TGI was over 300 µM with HS 578T breast; over 300 µM with NCI/ADR-RES ovarian; 8.81 µM and 77.1 µM with COLO 205 colon; over 300 µM in the assay with K-562 leukemia; over 300 µM in the assay on MDA-MB-435; over 300 µM in the assay on SK-MEL-28 melanoma. The TGI with MCF7 breast and in the assay with SW-620 colon was over 300 µM throughout.
With `COc1cc(-c2csc(NC(=O)Nc3cc(C(F)(F)F)cc(C(F)(F)F)c3)n2)cc(OC)c1OC`, the GI50 in the assay with HS 578T breast was 2.24 µM; with SF-295 CNS it was 1.83 µM; in the assay on NCI/ADR-RES ovarian, 2.65 µM; in the assay with COLO 205 colon it was 1.8 µM; in the assay on K-562 leukemia it was 1.92 µM; with MDA-MB-435, 2.81 µM. The GI50 was 3.02 µM in the assay on SK-MEL-28 melanoma, 2.41 µM with MCF7 breast, 3.21 µM in the assay on SW-620 colon and 2.26 µM with CCRF-CEM leukemia. Moreover, the TGI in the assay with HS 578T breast was 6.9 µM; in the assay with SF-295 CNS, 5.46 µM; with NCI/ADR-RES ovarian, 12.1 µM; in the assay with COLO 205 colon, 3.45 µM; in the assay with K-562 leukemia, 12 µM; in the assay with MDA-MB-435, 10.5 µM. Besides, the TGI was found to be 12.6 µM in the assay on SK-MEL-28 melanoma, 11.8 µM in the assay with MCF7 breast, 14.6 µM in the assay with SW-620 colon and 7.83 µM in the assay on CCRF-CEM leukemia.
In the case of `O=C(NCCCCCCNC(=O)n1cc(F)c(=O)[nH]c1=O)NCCCOCCOCCOCCOCCOCCOCCOCCOCCOCCOCCOCCOCCOCCOCCOCCOCCOCCOCCOCCOCCOCCCNC(=O)C(O)C(O)C(OC1OC(CO)C(O)C(O)C1O)C(O)CO` (configuration not stated), the TGI with HS 578T breast, with SF-295 CNS, in the assay with NCI/ADR-RES ovarian, in the assay on COLO 205 colon, in the assay on K-562 leukemia and with MDA-MB-435 was over 100 µM throughout. Besides, the TGI in the assay on SK-MEL-28 melanoma is over 100 µM; in the assay with MCF7 breast, over 46.8 µM; in the assay with SW-620 colon, over 100 µM; with CCRF-CEM leukemia, over 100 µM.
For the compound `O=C(O)c1ccc2c3c(ncnc13)-c1ccccc1C2=O`, the GI50 with HS 578T breast was 1.19 µM; in the assay with SF-295 CNS it was 2.28 µM; in the assay with NCI/ADR-RES ovarian it was 42.8 µM; in the assay with COLO 205 colon, 3.25 µM; with K-562 leukemia, 42.1 µM; in the assay with MDA-MB-435, 1.72 µM. Moreover, the GI50 was 1.64 µM in the assay on SK-MEL-28 melanoma, 4.14 µM with MCF7 breast, 4.78 µM in the assay with SW-620 colon and over 84.6 µM with CCRF-CEM leukemia. Moreover, the TGI with HS 578T breast is 6.28 µM; in the assay with SF-295 CNS it was over 30.6 µM; in the assay with NCI/ADR-RES ovarian, over 100 µM; with COLO 205 colon it was 16.7 µM; with K-562 leukemia, over 100 µM; in the assay on MDA-MB-435, 3.59 µM. Moreover, the TGI in the assay on SK-MEL-28 melanoma was 4.04 µM; with MCF7 breast, over 100 µM; in the assay with SW-620 colon, over 100 µM; in the assay with CCRF-CEM leukemia, over 100 µM.
For `CCOc1ccc2nc(-c3cccc(OCC(=O)NC(C)C)c3)nc(Nc3ccc(-c4cn[nH]c4)cc3)c2c1`, the GI50 in the assay on HS 578T breast is 0.132 µM; in the assay with SF-295 CNS, 0.711 µM; in the assay on NCI/ADR-RES ovarian, 1.92 µM; in the assay with COLO 205 colon, 0.686 µM; in the assay with K-562 leukemia, 0.454 µM; in the assay with MDA-MB-435 it was 0.485 µM. Moreover, the GI50 with SK-MEL-28 melanoma is 1.13 µM; in the assay on MCF7 breast, 0.348 µM; in the assay with SW-620 colon, 1.35 µM; in the assay on CCRF-CEM leukemia it was 0.315 µM. In addition, the TGI in the assay with HS 578T breast came out at 1.72 µM; with SF-295 CNS, 3.01 µM; in the assay with NCI/ADR-RES ovarian, 22.9 µM; with COLO 205 colon, 5.4 µM; in the assay on MDA-MB-435, 3.81 µM; with SK-MEL-28 melanoma, 3 µM. Moreover, the TGI with MCF7 breast was 2.11 µM; with SW-620 colon it was 5.99 µM; with CCRF-CEM leukemia it was over 51.6 µM.
Take `COc1ccc2nc3cc([N+](=O)[O-])ccc3c(NCCCN(CCO)CCO)c2c1`: the GI50 is 4.06 µM in the assay with HS 578T breast; 9 µM in the assay on SF-295 CNS; 15.9 µM with NCI/ADR-RES ovarian; 2.64 µM in the assay on COLO 205 colon; 1.94 µM in the assay with K-562 leukemia; 2.27 µM in the assay on MDA-MB-435. For the same compound, the GI50 in the assay with SK-MEL-28 melanoma was 3.93 µM; in the assay on MCF7 breast, 0.889 µM; in the assay with SW-620 colon, 3.15 µM; in the assay with CCRF-CEM leukemia, 3.78 µM. Moreover, the TGI was found to be 12.5 µM in the assay on HS 578T breast; 22.3 µM in the assay with SF-295 CNS; 39.9 µM in the assay on NCI/ADR-RES ovarian; 9.12 µM in the assay on COLO 205 colon; 4.77 µM in the assay on K-562 leukemia; 5.67 µM in the assay on MDA-MB-435. The TGI in the assay on SK-MEL-28 melanoma stood at 13 µM; in the assay with MCF7 breast it was 4.95 µM; with SW-620 colon, 12.3 µM; in the assay on CCRF-CEM leukemia, 14.6 µM.

For the origin of these results see PubChem BioAssay (NCI).
